Data from ChEMBL document CHEMBL5725509, “Substituted pyrido[3,4-b]pyrazines as GPR6 modulators” (2017).

Molecular target: G-protein coupled receptor 6 (Homo sapiens, UniProt P46095)
Assay: cAMP assay A.1: This cell based assay measures the ability of compounds to inhibit the constitutive cAMP activity of GPR6 receptor expressed in CHO-K1 cells. CHO cells were stably expressed with GPR6 receptor, whose expression is controlled by a tetracycline inducable element. The cells were cultured in medium containing F12K, 10% FBS, 1% Penn/Strep, 200 ug/mL Hygromycin. GPR6 receptor expression was induced for 20 hrs with 1 μg/ml doxycycline (sigma D9891) in growth media. After addition of doxycycline cells were plated at a density of 250-500 cells per well in half-volume black clear bottom plates (Costar) and place in an incubator (37°, 5% C(O)2) for 20 hours prior to cAMP assays. Culture media was removed from cells and they were washed with 50 μL of Ringer's Buffer (MgCl2 0.047 mg/mL, NaH2PO4 0.18 mg/mL, Na2HPO4 0.1 mg/mL, KCl 0.34 mg/mL, NaHC(O)3 1.26 mg/mL, D-glucose 1.8 mg/mL, NaCl 7 mg/mL; pH=7.4). Compounds suspended in DMSO were diluted in Ringer's Buffer containing 0.5% fatty acid free BSA and incubated on cells for 45 min at 37° and 5% C(O)2. After incubation cells were incubated for 10 min at room temp with Eu-cAMP tracer solution from a Perkin Elmer Lance HTRF UltracAMP assay kit (TRF0264). Then ULight-anti-cAMP solution from the Lance HTRF kit was added and incubated on a shaker at room temp for 1 hour prior to HTRF detection in a BMG PolarStar Omega. […]

Sequence of G-protein coupled receptor 6 (P46095 whole entry): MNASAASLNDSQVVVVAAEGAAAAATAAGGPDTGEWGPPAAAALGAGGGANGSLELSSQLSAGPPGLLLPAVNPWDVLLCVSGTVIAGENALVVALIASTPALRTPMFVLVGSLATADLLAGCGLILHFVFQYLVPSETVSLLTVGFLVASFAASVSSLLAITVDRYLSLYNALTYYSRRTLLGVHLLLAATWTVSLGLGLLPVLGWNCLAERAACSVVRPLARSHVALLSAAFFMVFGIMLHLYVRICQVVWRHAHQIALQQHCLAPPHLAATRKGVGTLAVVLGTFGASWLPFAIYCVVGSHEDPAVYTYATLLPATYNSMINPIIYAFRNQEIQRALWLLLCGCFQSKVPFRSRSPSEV

| SMILES | IC50 [mM] |
| --- | --- |
| CN1CCc2nc(N3CCC(Oc4ccc(F)cc4F)CC3)c(NCC(F)F)nc2C1 | > 1 |
| CC(=O)N1CCc2nc(N3CCN(C(=O)OC(C)(C)C)CC3)c(NC(C)C)nc2C1 | > 1 |
